{"source": "patent US10913732B2", "about": "“Furoxans as therapies for neurodegenerative disorders” (The University of Toledo, priority 2016, dated 2021)", "key": {"[1]": {"experiment": "Thiol reactivity by incubation with excess thiol, HPLC-UVvis", "assay_type": "physicochemical", "method": "FIGS. 5A-5B: Thiol reactivity was analyzed via incubations containing 31b (250 μM) in the presence or absence of excess (5 mM) cysteine (or N-acetylcysteine [NAc]) in PBS (50 mM, pH\n7.4) at 37° C. (FIG. 5A). Incubations were placed in a temperature controlled HPLC autosampler and aliquots are analyzed by HPLC-UVvis periodically for 2-24 hr. Percent furoxan remaining was determined based on the area under the curve (AUC) of the HPLC UV-absorbance spectrum. Similarly, rat liver microsomes were incubated with 31b in the presence or absence of NADPH to determine microsomal stability (FIG. 5B). Warfarin and verapamil were used as slow and fast metabolizing controls.\nWithout wishing to be bound by theory, it is believed that furoxans require thiol attack to produce NO. […] Thiol reactivity of 31b was assessed via incubations with excess thiol (N-acetylcysteine [NAc]) at physiological pH and temperature using a temperature controlled HPLC autosampler. […]\nHPLC method: solvents, H2O [0.1% FA]—solvent A; MeOH [0.1% FA]—solvent B; flow rate 1.0 mL/min. […] As described above, thiol reactivity was analyzed via incubations containing the furoxan (250 μM) in the presence or absence of excess (5 mM) cysteine (or N-acetylcysteine [NAc]) in PBS (50 mM, pH 7.4) at 37° C. Incubations were placed in a temperature controlled HPLC autosampler and aliquots were analyzed by HPLC-UVvis periodically for 2-24 hr. […]"}, "[2]": {"test_system": "CREB phosphorylation at Ser-133", "experiment": "In vivo pharmacodynamics, hippocampal pCREB:tCREB by ELISA", "conditions": "scopolamine treated mice plus 31b 20 or 40 mg/kg ip"}, "[3]": {"test_system": "PC12 cells", "experiment": "In vitro neuroprotection against oxygen glucose deprivation (OGD), MTT viability readout", "assay_type": "cell-based", "conditions": "OGD 90 min, reoxygenation, furoxan 1, 10 or 25 μM, 24 hr", "method": "FIGS. 3A-3C: Neuroprotection (FIG. 3A), MTT treatment was used to assess cell viability (FIG. 3B), and pCREB modulation (FIG. 3C) of furoxan compounds. Neuroprotection assay workflow: expose PC12 cells to oxygen glucose deprivation (OGD) for 90 min→reoxygenate and add furoxan (1, 10, or 25 μM)→incubate for 24 hr→MTT readout of viability. Data represented as mean and s.e.m. (n=3). *=p<0.05, **=p<0.01, ***=p<0.001 compared to vehicle control using one way ANOVA analysis with Dunnett's post-hoc test. Red dashed line indicates threshold of vehicle effects. For pCREB modulation, 31b (25 μM) was examined (PC-12 cells, 48 hr incubation) in the following: without insult, with OGD, L-NAME.\nIt has been shown that furoxans are protective against oxygen glucose deprivation (OGD), a commonly used cellular model of ischemic stroke. PC12 cells were submitted to OGD for 90 minutes followed by reoxygenation and treatment with varying concentrations of selected embodiments of compounds of Formula I (indicated in FIG. 3A). After 24 hr, MTT treatment was used to assess cell viability (FIG. 3B). […] It has been shown previously that 4-N-oxides release NO at a much slower rate than corresponding 2-N-oxides."}, "[4]": {"test_system": "Mice", "experiment": "Permanent middle carotid artery occlusion (pMCAO) model of stroke", "assay_type": "in vivo", "method": "FIGS. 9A-9E: Evaluation of the furoxan 31b. […] Latency to fall was normalized to 4 h post-infarct mean for each group and is represented as mean and s.e.m. (n=12). Analyzed using one way ANOVA analysis with Tukey's post-hoc test. […] Each of the seven tests included in the 28-point NDS was graded from 0-4, with higher scores indicating severe deficits (n=12). Compared using unpaired t-test. […] Compared using unpaired t-test. For all data, *=p<0.05, **=p<0.01, ***=p<0.001.\n31b (20 mg/kg, i.p.) was administered once daily for 6 days beginning 12 hr after permanent MCAO (pMCAO, FIG. 9A). pMCAO was chosen rather than 2-VO because pMCAO is much simpler and more reliable (pMCAO-no loss of animals vs 2-VO˜30% lethality 7 days post-op). Ultimately, this model allowed for the provision of evidence of neuroprotective efficacy and effect on BDNF.\nLocomotor activity was evaluated by means of a rotarod task by a person blinded to the treatment groups. Mice were placed on a horizontal rod (Columbus Instruments, OH) that was made to rotate at 1 rpm with an acceleration rate of 1 rpm every 10 s until the animal fell from the rod. Each animal was tested three times per trial. All the animals were trained on the rotarod assembly prior to surgery. The duration for which each animal was able to stay on the accelerating rod was recorded as the latency to fall and registered manually. Locomotor activity was monitored 4 h before, 24 h, postsurgery and 7 days after p-MCAO surgery Grip strength was evaluated by holding the mice by tails and placing their forelimbs on a specially designed pull bar assemblies (Grip strength meter, Columbus Instruments, OH). […] Each animal was tested three times per trial at 4 h before, 2 and 7 days after p-MCAO surgery. NDS were evaluated by an optimized 28-point score pattern. A person blinded to the treatment evaluated NDS 7 days after p-MCAO; the evaluation included both sensory and motor deficits, such as body symmetry, gait, climbing, circling behavior, front limb symmetry, compulsory circling, and whisker response. Each of the seven tests included in the 28-point NDS was graded from 0 to 4, with higher scores indicating severe deficits. Animals from all the groups were euthanized 7 days after p-MCAO. Brains were dissected out and sliced into five 2-mm-thick coronal sections before incubating in 1% triphenyltetrazolium chloride (TTC) (Sigma Co., MI). The infarct area was estimated from five slices of each brain, measuring rostral and caudal sides of each individual slice in conjunction with the thickness and expressed as a percentage of the volume of the contralateral hemisphere. A person blinded to the treatment groups measured the infarct volume with the help of ImageJ software provided by NIH."}, "[5]": {"conditions": "20 mg/kg i.p. once daily for 6 days beginning 12 hr after pMCAO, day 7"}}, "note": "Entries after “also recorded” stand apart in the source; their conditions may differ.", "data": [{"smiles": "CC1CCN(Cc2no[n+]([O-])c2-c2ccc(F)cc2)CC1", "note": "[31b]", "values": [{"measurement": "Stability in the presence of general cellular thiols, such as GSH and cysteine", "setting": "[1]", "value": "extremely stable"}, {"measurement": "Change in amount of furoxan with excess thiol", "setting": "[1]; 250 μM, 5 mM N-acetylcysteine, PBS pH 7.4, 37° C., after 24 hr", "value": "no measurable change"}, {"measurement": "Hippocampal pCREB:tCREB ratio", "setting": "[2]", "value": "trends toward reversal"}, {"measurement": "Neuroprotection against OGD (cell viability by MTT)", "setting": "[3]", "value": "concentration dependent protection; also recorded: outperform the corresponding 2-N-oxides"}, {"measurement": "Infarct volume reduction", "setting": "[4]; 20 mg/kg i.p. once daily for 6 days after pMCAO, TTC staining, p=0.11", "value": "~30", "unit": "%"}, {"measurement": "BDNF levels relative to control animals", "setting": "[4]; 20 mg/kg i.p. once daily for 6 days after pMCAO, WB, p=0.07", "value": "double the levels of control animals"}, {"measurement": "Behavioral functional recovery, neurologic deficit scoring (NDS)", "setting": "[4]; [5]", "value": "reverses neurologic deficit; also recorded: significant improvement"}, {"measurement": "Behavioral functional recovery, rotarod", "setting": "[4]; [5]", "value": "improves rotarod performance; also recorded: significant improvement"}]}]}
